In patent publication US8198307B2, “Imidazole derivatives having aryl piperidine substituent, method for preparation thereof and pharmaceutical compositions containing same” (Korea Research Institute of Chemical Technology, priority 2007, dated 2012):
Like-named read-outs stand apart in the source and are kept apart here.

Target: T1, MCH R1 (melanine-concentrating hormone receptor-1) (Homo sapiens, UniProt Q99705)
T1 construct: purchased Euroscreen, Gosselies, Belgium
Assay: Inhibitory effects on MCH R1 binding (Eu-MCH time-resolved fluorescence binding assay)
Method in brief: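 Receptor membranes were incubated 90 min at room temperature with 2 nM Eu-MCH and test compound (1 nM–10 μM final) in 25 mM HEPES pH 7.4, 5 mM MgCl2, 1 mM CaCl2, 0.5% BSA, then filter-washed. Nonspecific binding was defined with 0.5 μM MCH. Time-resolved fluorescence (ex 340/em 615 nm) gave percent inhibition of specific binding.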

[1] = concentration inhibiting the binding of MCH (Eu-MCH, 2 nM) to MCH R1 by 50% in vitro, TRF readout, test range 1 nM to 10 μM, read-out: IC50

T1 sequence (Q99705 whole entry, species assumed): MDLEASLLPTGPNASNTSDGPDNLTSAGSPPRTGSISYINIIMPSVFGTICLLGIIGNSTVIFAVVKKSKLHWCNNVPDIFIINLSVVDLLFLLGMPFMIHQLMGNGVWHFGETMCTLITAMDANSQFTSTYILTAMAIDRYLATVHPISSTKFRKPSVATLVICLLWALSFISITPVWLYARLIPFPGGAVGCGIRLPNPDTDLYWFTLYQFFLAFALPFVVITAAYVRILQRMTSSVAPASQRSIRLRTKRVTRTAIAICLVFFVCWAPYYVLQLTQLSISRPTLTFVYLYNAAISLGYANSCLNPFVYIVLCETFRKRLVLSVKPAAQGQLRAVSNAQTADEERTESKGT

SMILES | IC50 [1] [nM] | IC50 [nM]
CC(C)C(=O)Nc1cccc(C2CCN(CCn3c(-c4ccc(Cl)cc4)nc4ccccc43)CC2)c1 [Example 71, 2-(4-chlorophenyl)-1-{2-[4-(3-isobutyrylaminophenyl)piperidin-1-yl]ethyl}-1H-benzimidazole] | > 10000 | –
CC(=O)Nc1cccc(C2CCN(CCCn3c(-c4ccccc4)nc4ccncc43)CC2)c1 [Example 72, 2-phenyl-3-{3-[4-(3-acetylaminophenyl)piperidin-1-yl]propyl}-3H-imidazo[4,5-c]pyridine] | 260 | –
CC(=O)Nc1cccc(C2CCN(CCCn3c(-c4ccccc4)nc4nc(C)c(Br)cc43)CC2)c1 [Example 74] | 680 | –
CC(=O)Nc1cccc(C2CCN(CCCn3c(-c4ccc(C#N)cc4)nc4cc(C)c(C)cc43)CC2)c1 [Example 78, 2-(4-cyanophenyl)-1-{3-[4-(3-acetylaminophenyl)piperidin-1-yl]propyl}-5,6-dimethyl-1H-benzimidazole] | 100 | –
CC(=O)Nc1cccc(C2CCN(CCCn3c(-c4ccc(F)cc4Cl)nc4cc(C)c(C)cc43)CC2)c1 [Example 80, 2-(2-chloro-4-fluorophenyl)-1-{3-[4-(3-acetylaminophenyl)piperidin-1-yl]propyl}-5,6-dimethyl-1H-benzimidazole] | 80 | –
CC(=O)Nc1cccc(C2CCN(CCCn3c(-c4ccc(Cl)cc4)nc4cc([N+](=O)[O-])ccc43)CC2)c1 [Example 85, 2-(4-chlorophenyl)-1-{3-[4-(3-acetylaminophenyl)piperidin-1-yl]propyl}-5-nitro-1H-benzimidazole] | – | 70
COc1cc(Cl)ccc1-c1nc2cc(C)c(C)cc2n1CCCN1CCC(c2cccc(NC(C)=O)c2)CC1 [Example 86, 2-(4-chloro-2-methoxyphenyl)-1-{3-[4-(3-acetylaminophenyl)piperidin-1-yl]propyl}-5,6-dimethyl-1H-benzimidazole] | 110 | –
COc1ccc(Cl)cc1-c1nc2cc(C)c(C)cc2n1CCCN1CCC(c2cccc(NC(C)=O)c2)CC1 [Example 87, 2-(5-chloro-2-methoxyphenyl)-1-{3-[4-(3-acetylaminophenyl)piperidin-1-yl]propyl}-5,6-dimethyl-1H-benzimidazole] | 70 | –
CC(=O)Nc1cccc(C2CCN(CCCn3c(C)nc4ccccc43)CC2)c1 [Example 88, 2-methyl-1-{3-[4-(3-acetylaminophenyl)piperidin-1-yl]propyl}-1H-benzimidazole] | > 10000 | –
Cc1nc2ccccc2n1CCCN1CCC(c2cccc(NC(=O)C(C)C)c2)CC1 [Example 90, 2-methyl-1-{3-[4-(3-isobutyrylaminophenyl)piperidin-1-yl]propyl}-1H-benzimidazole] | 80 | –
CC(=O)Nc1cccc(C2CCN(CCCn3c(C)nc4ccc(C)nc43)CC2)c1 [Example 91, 2,5-dimethyl-3-{3-[4-(3-acetylaminophenyl)piperidin-1-yl]propyl}-3H-imidazo[4,5-b]pyridine] | 2800 | –
CC(=O)Nc1cccc(C2CCN(CCCn3c(C)nc4cc(Br)c(C)nc43)CC2)c1 [Example 92, 6-bromo-2,5-dimethyl-3-{3-[4-(3-acetylaminophenyl)piperidin-1-yl]propyl}-3H-imidazo[4,5-b]pyridine] | 188 | –
CCc1nc2cc(Br)c(C)nc2n1CCCN1CCC(c2cccc(NC(C)=O)c2)CC1 [Example 93, 6-bromo-2-ethyl-5-methyl-3-{3-[4-(3-acetylaminophenyl)piperidin-1-yl]propyl}-3H-imidazo[4,5-b]pyridine] | 98 | –
CCCCc1nc2c(C)cc(C)nc2n1CCCN1CCC(c2cccc(NC(C)=O)c2)CC1 [Example 95, 2-butyl-5,7-dimethyl-3-{3-[4-(3-acetylaminophenyl)piperidin-1-yl]propyl}-3H-imidazo[4,5-b]pyridine] | 90 | –
CCCCc1nc2cc(-c3ccccn3)c(C)nc2n1CCCN1CCC(c2cccc(NC(C)=O)c2)CC1 [Example 97, 2-butyl-5-methyl-6-pyridin-2-yl-3-{3-[4-(3-acetylaminophenyl)piperidin-1-yl]propyl}-3H-imidazo[4,5-b]pyridine] | 70 | –
CCCCc1nc2c(C)c(-c3ccccc3)c(C)nc2n1CCCN1CCC(c2cccc(NC(=O)C(C)C)c2)CC1 [Example 100, 2-butyl-5,7-dimethyl-6-phenyl-3-{3-[4-(3-isobutyrylaminophenyl)piperidin-1-yl]propyl}-3H-imidazo[4,5-b]pyridine] | 320 | –
CCCCc1nc2cc(-c3ccccc3)c(C=O)nc2n1CCCN1CCC(c2cccc(NC(=O)C(C)C)c2)CC1 [Example 102, 2-butyl-5-formyl-6-phenyl-3-{3-[4-(3-isobutyrylaminophenyl)piperidin-1-yl]propyl}-3H-imidazo[4,5-b]pyridine] | 260 | –
CC(=O)Nc1cccc(C2CCN(CCCn3c(-c4ccncc4)nc4ccccc43)CC2)c1 [Example 106, 2-(pyridin-4-yl)-1-{3-[4-(3-acetamidophenyl)piperidin-1-yl]propyl}-1H-benzimidazole] | 150 | –

More lines, main results first:

IC50 [1] [nM] | SMILES | IC50 [nM]
23 | CC(=O)Nc1cccc(C2CCN(CCCn3c(-c4ccccc4)nc4nc(C)ccc43)CC2)c1 [Example 75] | –
60 | COC(=O)c1cccc(-c2nc3ccccc3n2CCCN2CCC(c3cccc(NC(C)=O)c3)CC2)c1 [Example 76, 2-(3-methoxycarbonylphenyl)-1-{3-[4-(3-acetylaminophenyl)piperidin-1-yl]propyl}-1H-benzimidazole] | –
60 | CCc1ccc(-c2nc3ccccc3n2CCCN2CCC(c3cccc(NC(C)=O)c3)CC2)cc1 [Example 77, 2-(4-ethylphenyl)-1-{3-[4-(3-acetylaminophenyl)piperidin-1-yl]propyl}-1H-benzimidazole] | –
20 | CC(=O)Nc1cccc(C2CCN(CCCn3c(-c4cccc(C)c4)nc4ccccc43)CC2)c1 [Example 79, 2-(m-tolyl)-1-{3-[4-(3-acetylaminophenyl)piperidin-1-yl]propyl}-1H-benzimidazole] | –
70 | CC(=O)Nc1cccc(C2CCN(CCCn3c(-c4ccc(Cl)cc4)nc4cc(C#N)ccc43)CC2)c1 [Example 81, 2-(4-chlorophenyl)-1-{3-[4-(3-acetylaminophenyl)piperidin-1-yl]propyl}-5-cyano-1H-benzimidazole] | –
70 | CC(=O)Nc1cccc(C2CCN(CCCn3c(-c4ccc(Cl)cc4)nc4ccc(C#N)cc43)CC2)c1 [Example 82, 2-(4-chlorophenyl)-1-{3-[4-(3-acetylaminophenyl)piperidin-1-yl]propyl}-6-cyano-1H-benzimidazole] | –
70 | CC(=O)Nc1cccc(C2CCN(CCCn3c(-c4ccc(Cl)cc4)nc4cc(F)ccc43)CC2)c1 [Example 83, 2-(4-chlorophenyl)-1-{3-[4-(3-acetylaminophenyl)piperidin-1-yl]propyl}-5-fluoro-1H-benzimidazole] | –
50 | CC(=O)Nc1cccc(C2CCN(CCCn3c(-c4ccc(F)cc4)nc4cc(Cl)ccc43)CC2)c1 [Example 84, 2-(4-fluorophenyl)-1-{3-[4-(3-acetylaminophenyl)piperidin-1-yl]propyl}-5-chloro-1H-benzimidazole] | –
60 | CC(=O)Nc1cccc(C2CCN(CCCn3c(C)nc4cc(C)c(C)cc43)CC2)c1 [Example 89, 2-methyl-1-{3-[4-(3-acetylaminophenyl)piperidin-1-yl]propyl}-5,6-dimethyl-1H-benzimidazole] | –
3 | CCCCc1nc2cc(Br)c(C)nc2n1CCCN1CCC(c2cccc(NC(C)=O)c2)CC1 [Example 94, 6-bromo-2-butyl-5-methyl-3-{3-[4-(3-acetylaminophenyl)piperidin-1-yl]propyl}-3H-imidazo[4,5-b]pyridine] | –
60 | CCCCc1nc2c(C)c(-c3ccccc3)c(C)nc2n1CCCN1CCC(c2cccc(NC(C)=O)c2)CC1 [Example 96, 2-butyl-5,7-dimethyl-6-phenyl-3-{3-[4-(3-acetylaminophenyl)piperidin-1-yl]propyl}-3H-imidazo[4,5-b]pyridine] | –
1 | CCCCc1nc2cc(Br)c(C)nc2n1CCCN1CCC(c2cccc(NC(=O)C(C)C)c2)CC1 [Example 98, 6-bromo-2-butyl-5-methyl-3-{3-[4-(3-isobutyrylaminophenyl)piperidin-1-yl]propyl}-3H-imidazo[4,5-b]pyridine] | –
40 | CCCCc1nc2c(C)cc(C)nc2n1CCCN1CCC(c2cccc(NC(=O)C(C)C)c2)CC1 [Example 99, 2-butyl-5,7-dimethyl-3-{3-[4-(3-isobutyrylaminophenyl)piperidin-1-yl]propyl}-3H-imidazo[4,5-b]pyridine] | –
40 | CCCCc1nc2cc(-c3ccccn3)c(C)nc2n1CCCN1CCC(c2cccc(NC(=O)C(C)C)c2)CC1 [Example 101, 2-butyl-5-methyl-6-pyridin-2-yl-3-{3-[4-(3-isobutyrylaminophenyl)piperidin-1-yl]propyl}-3H-imidazo[4,5-b]pyridine] | –
20 | CCCCc1nc2cc(-c3ccc([N+](=O)[O-])cc3)c(C)nc2n1CCCN1CCC(c2cccc(NC(=O)C(C)C)c2)CC1 [Example 103, 2-butyl-5-methyl-6-(4-nitrophenyl)-3-{3-[4-(3-isobutyrylaminophenyl)piperidin-1-yl]propyl}-3H-imidazo[4,5-b]pyridine] | –
33 | CC(=O)Nc1cccc(C2CCN(CCCn3c(-c4ccccn4)nc4ccccc43)CC2)c1 [Example 104, 2-(pyridin-2-yl)-1-{3-[4-(3-acetamidophenyl)piperidin-1-yl]propyl}-1H-benzimidazole] | –
60 | CC(=O)Nc1cccc(C2CCN(CCCn3c(-c4cccnc4)nc4ccccc43)CC2)c1 [Example 105, 2-(pyridin-3-yl)-1-{3-[4-(3-acetamidophenyl)piperidin-1-yl]propyl}-1H-benzimidazole] | –
25 | CC(=O)Nc1cccc(C2CCN(CCCn3c(-c4ccoc4)nc4ccccc43)CC2)c1 [Example 107, 2-(furan-3-yl)-1-{3-[4-(3-acetylaminophenyl)piperidin-1-yl]propyl}-1H-benzimidazole] | –
